Data from patent US20250326744A1, “PIPERAZINE DERIVATIVE OR SALT THEREOF, AND PHARMACEUTICAL COMPOSITION” (priority 2022, published 2025).
Counter-ions that a name gives are not always drawn.

What was measured:
mexB (PA) strain = test: Combinational effect with antibacterial agent against Pseudomonas aeruginosa (Test Examples 2 and 4): mexB (PA) strain with LVFX, TC or AZT at 1/4 MIC, EC99; format: cell-based; conditions: for EC99, combinational effect with AZT, mexB (PA) / EC99, combinational effect with LVFX, mexB (PA) / EC99, combinational effect with TC, mexB (PA): mexB (PA) strain, Test Example 4; for EC99, combinational effect with AZT, mexB (PA) / EC99, mexB (PA), AZT: combined with AZT at 1/4 MIC; for EC99, combinational effect with LVFX, mexB (PA) / EC99, mexB (PA), LVFX: combined with LVFX at 1/4 MIC; for EC99, combinational effect with TC, mexB (PA) / EC99, mexB (PA), TC: combined with TC at 1/4 MIC; for EC99, mexB (PA), AZT / EC99, mexB (PA), LVFX / EC99, mexB (PA), TC: Table 52, Test Example 2, 16 to 20 hours culture, OD595
In short: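 EC99 denotes the minimum test-compound concentration (range 0–800 μM) that suppresses ≥99% of growth, measured by OD595, when combined with ¼ MIC levofloxacin (LVFX), tetracycline or aztreonam. The efflux-pump mutant mexB (PA), expressing mainly MexAB-OprM, was inoculated at 10^4–5 CFU/well in CAMHB for 16–20 h.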

S-3769 strain = test: Combinational effect with antibacterial agent against Pseudomonas aeruginosa (Test Examples 2 and 4): S-3769 strain with AMK or GM at 1/4 MIC, EC99; format: cell-based; conditions: for EC99, combinational effect with AMK, S-3769 strain / EC99, S-3769 strain, AMK: combined with AMK at 1/4 MIC; for EC99, combinational effect with AMK, S-3769 strain / EC99, combinational effect with GM, S-3769 strain: Test Example 4; for EC99, combinational effect with GM, S-3769 strain / EC99, S-3769 strain, GM: combined with GM at 1/4 MIC; for EC99, S-3769 strain, AMK / EC99, S-3769 strain, GM: Table 52, Test Example 2, 16 to 20 hours culture, OD595
In short: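 EC99, the lowest test-compound concentration inhibiting growth by ≥99% (OD595), was measured with aminoglycoside AMK or GM held at ¼ MIC. Strain S-3769, a MexY-overexpressing clinical isolate, was cultured in CAMHB at 10^4 to 5 CFU/well for 16–20 h; compound range 0–800 μM.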

| SMILES | EC99, combinational effect with AZT, mexB (PA) (mexB (PA) strain) | EC99, combinational effect with LVFX, mexB (PA) (mexB (PA) strain) | EC99, combinational effect with TC, mexB (PA) (mexB (PA) strain) | EC99, combinational effect with AMK, S-3769 strain (S-3769 strain) | EC99, combinational effect with GM, S-3769 strain (S-3769 strain) | EC99, mexB (PA), AZT (mexB (PA) strain) | EC99, mexB (PA), LVFX (mexB (PA) strain) | EC99, mexB (PA), TC (mexB (PA) strain) | EC99, S-3769 strain, AMK (S-3769 strain) | EC99, S-3769 strain, GM (S-3769 strain) |
| --- | --- | --- | --- | --- | --- | --- | --- | --- | --- | --- |
| CCc1ccccc1CN1CCN(C(=O)[C@H](N)C2CCN(CCc3cc(Cl)ccc3-c3ccccc3)CC2)CC1 [Example 505, Hydrobromide of (R)-2-amino-2-(1-(2-(4-chloro-[1,1-biphenyl]-2-yl)ethyl)piperidin-4-yl)-1-(4-(2-ethylbenzyl)piperazin-1-yl)ethan-1-one] | B (25 μM<EC99≤100 μM) | B (25 μM<EC99≤100 μM) | B (25 μM<EC99≤100 μM) | B (25 μM<EC99≤100 μM) | B (25 μM<EC99≤100 μM) | – | – | – | – | – |
| CCOc1cccc(F)c1CN1CCN(C(=O)[C@H](N)C2CCN(CCn3ccc4ccccc43)CC2)CC1 [Example 159, Hydrobromide of (R)-2-(1-(2-(1H-indol-1-yl)ethyl)piperidin-4-yl)-2-amino-1-(4-(2-ethoxy-6-fluorobenzyl)piperazin-1-yl)ethan-1-one] | – | – | – | – | – | C (100 μM<EC99) | C (100 μM<EC99) | C (100 μM<EC99) | B (25 μM<EC99≤100 μM) | C (100 μM<EC99) |
| CCOc1c(Cl)ccc(F)c1CN1CCN(C(=O)[C@H](N)C2CCN(CCc3cc(Cl)ccc3-c3ccccc3)CC2)CC1 [Example 9, Hydrobromide of (R)-2-amino-1-(4-(3-chloro-2-ethoxy-6-fluorobenzyl)piperazin-1-yl)-2-(1-(2-(4-chloro-[1,1′-biphenyl]-2-yl)ethyl)piperidin-4-yl) ethan-1-one] | – | – | – | – | – | B (25 μM<EC99≤100 μM) | C (100 μM<EC99) | B (25 μM<EC99≤100 μM) | A (12.5 μM<EC99≤25 μM) | A (12.5 μM<EC99≤25 μM) |
| CCOc1cccc(F)c1CN1CCN(C(=O)[C@H](N)C2CCN(CCc3cc(Cl)ccc3-c3cncs3)CC2)CC1 [Example 504, Hydrobromide of (R)-2-amino-2-(1-(5-chloro-2-(thiazol-5-yl)phenethyl)piperidin-4-yl)-1-(4-(2-ethoxy-6-fluorobenzyl)piperazin-1-yl)ethan-1-one] | B (25 μM<EC99≤100 μM) | B (25 μM<EC99≤100 μM) | B (25 μM<EC99≤100 μM) | A (12.5 μM<EC99≤25 μM) | A (12.5 μM<EC99≤25 μM) | – | – | – | – | – |
| CSc1ccccc1CN1CCN(C(=O)[C@H](N)C2CCN(CCc3cc(Cl)ccc3-c3cccc(O)c3)CC2)CC1 [Example 611, Hydrochloride of (R)-2-amino-2-(1-(2-(4-chloro-3′-hydroxy-[1,1-biphenyl]-2-yl)ethyl)piperidin-4-yl)-1-(4-(2-(methylthio)benzyl)piperazin-1-yl)ethan-1-one] | S (EC99≤12.5 μM) | S (EC99≤12.5 μM) | S (EC99≤12.5 μM) | S (EC99≤12.5 μM) | B (25 μM<EC99≤100 μM) | – | – | – | – | – |
| CSc1ccccc1CN1CCN(C(=O)[C@H](N)C2CCN(CCc3cc(Cl)ccc3-c3cc(O)ccc3Cl)CC2)CC1 [Example 618, (R)-2-amino-2-(1-(2-(2′,4-dichloro-5′-hydroxy-[1,1′-biphenyl]-2-yl)ethyl)piperidin-4-yl)-1-(4-(2-(methylthio)benzyl)piperazin-1-yl)ethan-1-one] | S (EC99≤12.5 μM) | S (EC99≤12.5 μM) | S (EC99≤12.5 μM) | S (EC99≤12.5 μM) | S (EC99≤12.5 μM) | – | – | – | – | – |
| N[C@@H](C(=O)N1CCN(Cc2ccccc2OCC(F)(F)F)CC1)C1CCN(CCc2cc(Cl)ccc2-c2ccccc2)CC1 [Example 2, Hydrobromide of (R)-2-amino-2-(1-(2-(4-chloro-[1,1′-biphenyl]-2-yl)ethyl)piperidin-4-yl)-1-(4-(2-(2,2,2-trifluoroethoxy)benzyl)piperazin-1-yl) ethan-1-one] | – | – | – | – | – | B (25 μM<EC99≤100 μM) | C (100 μM<EC99) | B (25 μM<EC99≤100 μM) | S (EC99≤12.5 μM) | S (EC99≤12.5 μM) |
| CCOc1cccc(F)c1CN1CCN(C(=O)[C@H](N)C2CCN(CCC3CCCCO3)CC2)CC1 (some centres unmarked) [Example 123] | – | – | – | – | – | C (100 μM<EC99) | C (100 μM<EC99) | C (100 μM<EC99) | C (100 μM<EC99) | C (100 μM<EC99) |
| CCOc1cccc(F)c1CN1CCN(C(=O)[C@H](N)C2CCN(CCc3cc(Cl)ccc3C3CC3)CC2)CC1 [Example 78, Hydrobromide of (R)-2-amino-2-(1-(5-chloro-2-cyclopropylphenethyl)piperidin-4-yl)-1-(4-(2-ethoxy-6-fluorobenzyl)piperazin-1-yl)ethan-1-one] | – | – | – | – | – | B (25 μM<EC99≤100 μM) | C (100 μM<EC99) | B (25 μM<EC99≤100 μM) | S (EC99≤12.5 μM) | S (EC99≤12.5 μM) |
| CCOc1cccc(F)c1CN1CCN(C(=O)[C@H](N)C2CCN(CCc3cc(Cl)ccc3-c3ccncc3)CC2)CC1 [Example 74, Hydrobromide of (R)-2-amino-2-(1-(5-chloro-2-(pyridin-4-yl)phenethyl)piperidin-4-yl)-1-(4-(2-ethoxy-6-fluorobenzyl)piperazin-1-yl)ethan-1-one] | – | – | – | – | – | C (100 μM<EC99) | C (100 μM<EC99) | C (100 μM<EC99) | S (EC99≤12.5 μM) | A (12.5 μM<EC99≤25 μM) |
| CSc1ccccc1CN1CCN(C(=O)[C@H](N)C2CCN(CCc3cc(Cl)ccc3-c3cccc(F)c3)CC2)CC1 [Example 551, Hydrobromide of (R)-2-amino-2-(1-(2-(4-chloro-3′-fluoro-[1,1-biphenyl]-2-yl)ethyl)piperidin-4-yl)-1-(4-(2-(methylthio)benzyl)piperazin-1-yl)ethan-1-one] | S (EC99≤12.5 μM) | S (EC99≤12.5 μM) | S (EC99≤12.5 μM) | B (25 μM<EC99≤100 μM) | A (12.5 μM<EC99≤25 μM) | – | – | – | – | – |
| N[C@@H](C(=O)N1CCN(Cc2c(F)cccc2-c2c[nH]cn2)CC1)C1CCN(CCc2cc(Cl)ccc2-c2ccccc2)CC1 [Example 528, Hydrobromide of (R)-2-amino-2-(1-(2-(4-chloro-[1,1-biphenyl]-2-yl)ethyl)piperidin-4-yl)-1-(4-(2-fluoro-6-(1H-imidazol-4-yl)benzyl)piperazin-1-yl)ethan-1-one] | B (25 μM<EC99≤100 μM) | A (12.5 μM<EC99≤25 μM) | A (12.5 μM<EC99≤25 μM) | A (12.5 μM<EC99≤25 μM) | S (EC99≤12.5 μM) | – | – | – | – | – |
| CCOc1cccc(F)c1CN1CCN(C(=O)[C@H](N)C2CCN(CCc3cc(Cl)ccc3-c3ccccc3F)CC2)CC1 [Example 139, hydrochloride of (R)-2-amino-2-(1-(2-(4-chloro-2′-fluoro-[1,1′-biphenyl]-2-yl)ethyl)piperidin-4-yl)-1-(4-(2-ethoxy-6-fluorobenzyl)piperazin-1-yl)ethan-1-one] | – | – | – | – | – | A (12.5 μM<EC99≤25 μM) | A (12.5 μM<EC99≤25 μM) | A (12.5 μM<EC99≤25 μM) | S (EC99≤12.5 μM) | S (EC99≤12.5 μM) |
